According to patent US20230190723A1 (MEREO BIOPHARMA 4 LIMITED, priority 2020, published 2023):

Key:
[1] = molecular target: Porcine Pancreatic Elastase (Sus scrofa, UniProt P00772); test: enzyme kinetics: SlaaapN cleavage by PPE after incubation with AAT; type: biochemical
neutrophil elastase = molecular target: T1, neutrophil elastase (Homo sapiens, UniProt P08246); test: proteinase/anti-proteinase imbalance model (fMLP-stimulated isolated neutrophils with fibrinogen, NE activity footprint Aα-Val360); type: cell-based; conditions: for NE activity remaining, % of untreated (Aα-Val360): no inhibitor = 100%
T1 construct: Neutrophils from healthy young volunteers were isolated; endogenous in cells; host or cells: neutrophils isolated from blood of healthy young volunteers, stimulated with fMLP in the presence of fibrinogen
T1 sequence (P08246 30-267): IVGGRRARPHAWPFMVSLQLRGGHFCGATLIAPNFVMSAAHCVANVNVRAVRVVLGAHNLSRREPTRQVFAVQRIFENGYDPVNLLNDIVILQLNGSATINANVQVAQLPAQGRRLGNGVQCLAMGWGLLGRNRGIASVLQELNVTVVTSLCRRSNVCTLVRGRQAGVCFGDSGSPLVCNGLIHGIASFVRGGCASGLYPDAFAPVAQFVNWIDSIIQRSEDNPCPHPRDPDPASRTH
Protocol: Neutrophils from healthy young volunteers were isolated using a method broadly described by Jepsen and Skottun [10].
Supernatant was obtained through centrifugation, and NE activity footprints were measured.

NE = molecular target: T2, NE (Homo sapiens, UniProt P08246); test: enzyme kinetics: SlaaapN cleavage by NE in the presence of inhibitor; type: biochemical
T2 construct: purchased Athens Research and Technology, US
T2 sequence (P08246 30-267): T1 sequence (P08246 30-267)
Protocol: Results were determined computationally using Prism software.

neutrophils = test: validation of the Aα-Val360 assay with stimulated neutrophils; type: cell-based, human; conditions: 15 minutes
Protocol: Baseline corrected Aα-Val^360 levels following stimulation of neutrophils at 2.5 million/ml with Cal at 2.4/2.1/1.8/1.5/1.2/0.9/0.6/0.3 μM with fibrinogen (550 nM) for 60 minutes; n=3.
Change in Aα-Val^360 levels following stimulation of neutrophils at 2.5 million/ml with fMLP at 0, 0.1,1,10 μM fMLP with fibrinogen (550 nM) for 15 minutes; n=3.
To determine maximal stimulation a potent stimulator of neutrophils, Cal, [11] was titrated out from 0-2.4 μM and specific proteinase fibrinogen-cleavage product measured.
To assess a more physiological stimulus, neutrophils were then incubated with N-formylmethionine-leucyl-phenylalanine (fMLP).

[2] = simple linear regression, control fixed at 100%

Chain of Porcine Pancreatic Elastase (P00772 27-266): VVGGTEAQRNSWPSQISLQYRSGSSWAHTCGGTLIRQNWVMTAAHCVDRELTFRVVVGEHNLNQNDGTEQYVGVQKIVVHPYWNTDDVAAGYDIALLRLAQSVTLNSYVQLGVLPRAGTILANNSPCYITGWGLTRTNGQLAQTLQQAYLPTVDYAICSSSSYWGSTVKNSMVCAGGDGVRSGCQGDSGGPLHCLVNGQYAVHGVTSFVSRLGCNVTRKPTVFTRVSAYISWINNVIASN

## AAT: protective anti-proteinase alpha-1 antitrypsin, physiological inhibitor of neutrophil serine proteinases; purified batch from Athens Research & Technology
[1]; SlaaapN substrate
  molar concentration of AAT required to neutralise 1 Mol active PPE: 1.208 mol
[1]; calculated from 1.208:1 AAT:PPE
  functional AAT activity: 83%

## Cc1c(-c2ccnn2C)cc(C(=O)NCc2ccc(S(C)(=O)=O)cn2)c(=O)n1-c1cccc(C(F)(F)F)c1 [alvelestat, 6-methyl-5-(1-methyl-1H-pyrazol-5-yl)-N-{[5-(methylsulfonyl)pyridin-2-yl]methyl}-2-oxo-1-[3-(trifluoromethyl)phenyl]-1,2-dihydropyridine-3-carboxamide]
Neutrophil elastase; alvelestat 10 nM
  NE activity remaining, % of untreated (Aα-Val360): 60.1%
Neutrophil elastase; alvelestat 1000 nM
  NE activity remaining, % of untreated (Aα-Val360): 27.4%
Neutrophil elastase; read-out: inhibition (suppression) of NE activity
  inhibition at 1 µM: 72.6%
NE; SlaaapN substrate, by extrapolation
  molar ratio of inhibitor required to fully inhibit NE (inhibitor:NE, x:1): 0.87
NE; [2]
  Slope, best-fit value (alvelestat:NE ratio vs NE enzymatic activity, FIG. 7): −114.4
  X-intercept, best-fit value (alvelestat:NE ratio vs NE enzymatic activity, FIG. 7): 0.8742
NE; titrated against elastase of known concentration and activity, Prism
  alvelestat activity against NE: 88%

## CSCC[C@H](NC=O)C(=O)N[C@@H](CC(C)C)C(=O)N[C@@H](Cc1ccccc1)C(=O)O [fMLP, N-formyl-L-methionyl-L-leucyl-phenylalanine]
neutrophils; 0.1 μM fMLP, neutrophils 2.5 million/ml, fibrinogen 550 nM
  increase of NE activity (Aα-Val360): 11.4 nM
neutrophils; 1 μM fMLP, relative to 0.1 μM
  further increase of NE activity (Aα-Val360): 7.3 nM
neutrophils; 10 μM fMLP, the values are: Aα-Val360 level (NE activity)
  increase of NE activity (Aα-Val360): 35 nM
